Patent US10945932B2, “Prebiotic oral care compositions containing carboxylic acids” (COLGATE-PALMOLIVE COMPANY, priority 2013, dated 2021)
Like-named read-outs stand apart in the source and are kept apart here.

Assays:
[1] = tested on: Streptococcus sobrinus; conditions: S sobrinus, BHI
Method: (§2) Late exponential growth phase liquid cultures were prepared by transferring the respective bacterium from blood agar plates to BHI and overnight incubation at 37° C. in an anaerobic atmosphere for A. viscosus, V. parvula, F. nucleatum, P. gingivalis, P. intermedia, T forsythia, A. naeslundii, and C. sputigena, and in a 5% CO2 environment for S. salivarius, S. sanguinis, S. mitis, A. actinomycetemcomitans, S. mutans, S. sobrinus and S. gordonii. Overnight cultures were transferred to BHI and adjusted to a concentration of 1×10^7 CFU/ml (colony forming units per ml) by measuring the optical density at 600 nm (OD600) (BioRad SmartSpec 3000). For each strain, 200 μl of the bacterial suspension was added to a 96-well plate containing 20 μl of the respective carboxylic acids. Final concentrations of the carboxylic acids were set to 5, 10, 20 and 25 μmol/ml. […] Plates were incubated as previously described.
(§3) For each combination of bacterium/carboxylic acid, and for each of their respective controls (i.e. the particular bacterium in the nutritionally rich medium with no carboxylic acid), the optical density was measured at 630 nm (OD630) at 0 h, 24 h and 48 h (Thermo Scientific Multiskan Ascent). Additionally, the OD630 for combinations of bacterium/carboxylic acid grown in a 5% CO2 environment were also measured every hour between 0 h and 9 h.
(§4) The experiment was carried out on three different days (thus providing 3 biological replicas) and on each day the experiment was carried out in quadruple (thus providing 4 technical replicas) for each combination of bacterium with carboxylic acid and for each control. For each day and for each combination, the average (mean) of the values obtained (as detailed above) for the four technical replicas was calculated to provide a single value for each combination on each day.

[2] = tested on: Actinomyces naeslundii; conditions: A naeslundii, BHI
Method: as §2, §3, §4

[3] = tested on: Veillonella parvula; conditions: V parvula, BHI
Method: as §2, §3, §4

[4] = tested on: Aggregatibacter actinomycetemcomitans; test: Biofilm growth assay in BHI, crystal violet; assay type: cell-based; conditions: A actinomycetemcomitans
Method: (§1) Late exponential growth phase liquid cultures were prepared by transferring the respective bacterium from blood agar plates to BHI and overnight incubation at 37° C. in an anaerobic atmosphere for A. viscosus, V. parvula, F. nucleatum, P. gingivalis, P. intermedia, T. forsythia, A. naeslundii, and C. sputigena, and in a 5% CO2 environment for S. salivarius, S. sanguinis, S. mitis, A. actinomycetemcomitans, S. mutans, and S. gordonii. […] Additionally, for each bacterium tested, a background control, to correct for background staining, was added. This background control contained the bacterium tested and 0.03 weight % chlorhexidine, as an antiseptic. Plates were incubated as previously described. After 48 hrs the supernatant was removed from the wells of the plates. The wells were washed twice with 1×100 μL/PBS (phosphate buffered saline), fixed for 20 minutes with 96% vol. ethanol (96% vol. solution in water) and the biofilm retained at the bottom of the wells was stained with 1 weight % crystal violet (1 weight % solution in water). […] Quantification of the stained biofilm was performed by measuring the absorbance at 630 nm using a Multiskan Ascent microplate reader (Thermo Scientific).

[5] = tested on: Porphyromonas gingivalis; test: Biofilm growth assay in BHI, crystal violet; assay type: cell-based; conditions: P gingivalis
Method: as §1

[6] = tested on: Streptococcus mitis; test: Biofilm growth assay in BHI, crystal violet; assay type: cell-based; conditions: S mitis
Method: as §1

[7] = tested on: Actinomyces naeslundii; test: Biofilm growth assay in BHI, crystal violet; assay type: cell-based; conditions: A naeslundii
Method: as §1

[8] = tested on: Capnocytophaga sputigena; test: Biofilm growth assay in BHI, crystal violet; assay type: cell-based; conditions: C sputigena
Method: as §1

[9] = tested on: Veillonella parvula; test: Biofilm growth assay in BHI, crystal violet; assay type: cell-based; conditions: V parvula
Method: as §1

[10] = tested on: Tannerella forsythia; test: Biofilm growth assay in BHI, crystal violet; assay type: cell-based; conditions: T forsythia
Method: as §1

[11] = tested on: Streptococcus sanguinis; test: Biofilm growth assay in BHI, crystal violet; assay type: cell-based; conditions: S sanguinis
Method: as §1

In the case of `N[C@@H](CC(=O)O)C(=O)O` [L-aspartic acid], the “extent of growth, maximal OD630 over 48 hr divided by maximal OD of control (control = 1)” value ([1]; 5 μmol/ml) is reported as 0.9714, the “extent of growth, maximal OD630 over 48 hr divided by maximal OD of control (control = 1)” value ([1]; 10 μmol/ml) is reported as 0.9741 and the “extent of growth, maximal OD630 over 48 hr divided by maximal OD of control (control = 1)” value ([1]; 20 μmol/ml) is reported as 0.9458. For the same compound, the “extent of growth, maximal OD630 over 48 hr divided by maximal OD of control (control = 1)” value ([1]; 25 μmol/ml) was 0.9644, the “extent of growth, maximal OD630 over 48 hr divided by maximal OD of control (control = 1)” value ([2]; 5 μmol/ml) was 0.8893 and the “extent of growth, maximal OD630 over 48 hr divided by maximal OD of control (control = 1)” value ([2]; 10 μmol/ml) was 0.8774. The “extent of growth, maximal OD630 over 48 hr divided by maximal OD of control (control = 1)” value ([2]; 20 μmol/ml) was 0.9021, the “extent of growth, maximal OD630 over 48 hr divided by maximal OD of control (control = 1)” value ([2]; 25 μmol/ml) was 0.8435 and the “extent of growth, maximal OD630 over 48 hr divided by maximal OD of control (control = 1)” value ([3]; 5 μmol/ml) was 1.0851. The “extent of growth, maximal OD630 over 48 hr divided by maximal OD of control (control = 1)” value ([3]; 10 μmol/ml) was 1.1168, the “extent of growth, maximal OD630 over 48 hr divided by maximal OD of control (control = 1)” value ([3]; 20 μmol/ml) was 1.1378 and the “extent of growth, maximal OD630 over 48 hr divided by maximal OD of control (control = 1)” value ([3]; 25 μmol/ml) was 1.1498. For the same compound, the “biofilm growth, OD at 630 nm (crystal violet) at 48 hrs divided by OD of control (control = 1)” value ([4]; 5 μmol/ml) was 0.6182, the “biofilm growth, OD at 630 nm (crystal violet) at 48 hrs divided by OD of control (control = 1)” value ([4]; 10 μmol/ml) was 0.5044 and the “biofilm growth, OD at 630 nm (crystal violet) at 48 hrs divided by OD of control (control = 1)” value ([4]; 20 μmol/ml) was 0.4857. For the same compound, the “biofilm growth, OD at 630 nm (crystal violet) at 48 hrs divided by OD of control (control = 1)” value ([4]; 25 μmol/ml) was 0.5553, the “biofilm growth, OD at 630 nm (crystal violet) at 48 hrs divided by OD of control (control = 1)” value ([5]; 5 μmol/ml) was 0.9713 and the “biofilm growth, OD at 630 nm (crystal violet) at 48 hrs divided by OD of control (control = 1)” value ([5]; 10 μmol/ml) was 0.9936. For the same compound, the “biofilm growth, OD at 630 nm (crystal violet) at 48 hrs divided by OD of control (control = 1)” value ([5]; 20 μmol/ml) was 1.0779, the “biofilm growth, OD at 630 nm (crystal violet) at 48 hrs divided by OD of control (control = 1)” value ([5]; 25 μmol/ml) was 0.9307 and the “biofilm growth, OD at 630 nm (crystal violet) at 48 hrs divided by OD of control (control = 1)” value ([6]; 5 μmol/ml) was 1.5188. The “biofilm growth, OD at 630 nm (crystal violet) at 48 hrs divided by OD of control (control = 1)” value ([6]; 10 μmol/ml) was 1.6156, the “biofilm growth, OD at 630 nm (crystal violet) at 48 hrs divided by OD of control (control = 1)” value ([6]; 20 μmol/ml) was 1.5402 and the “biofilm growth, OD at 630 nm (crystal violet) at 48 hrs divided by OD of control (control = 1)” value ([6]; 25 μmol/ml) was 1.7351. The “biofilm growth, OD at 630 nm (crystal violet) at 48 hrs divided by OD of control (control = 1)” value ([7]; 5 μmol/ml) was 1.1735, the “biofilm growth, OD at 630 nm (crystal violet) at 48 hrs divided by OD of control (control = 1)” value ([7]; 10 μmol/ml) was 1.2585 and the “biofilm growth, OD at 630 nm (crystal violet) at 48 hrs divided by OD of control (control = 1)” value ([7]; 20 μmol/ml) was 1.2309. The “biofilm growth, OD at 630 nm (crystal violet) at 48 hrs divided by OD of control (control = 1)” value ([7]; 25 μmol/ml) was 1.1175, the “biofilm growth, OD at 630 nm (crystal violet) at 48 hrs divided by OD of control (control = 1)” value ([8]; 5 μmol/ml) was 0.9508 and the “biofilm growth, OD at 630 nm (crystal violet) at 48 hrs divided by OD of control (control = 1)” value ([8]; 10 μmol/ml) was 0.9546. For the same compound, the “biofilm growth, OD at 630 nm (crystal violet) at 48 hrs divided by OD of control (control = 1)” value ([8]; 20 μmol/ml) was 0.9747, the “biofilm growth, OD at 630 nm (crystal violet) at 48 hrs divided by OD of control (control = 1)” value ([8]; 25 μmol/ml) was 0.9785 and the “biofilm growth, OD at 630 nm (crystal violet) at 48 hrs divided by OD of control (control = 1)” value ([9]; 5 μmol/ml) was 1.1641. For the same compound, the “biofilm growth, OD at 630 nm (crystal violet) at 48 hrs divided by OD of control (control = 1)” value ([9]; 10 μmol/ml) was 1.2799, the “biofilm growth, OD at 630 nm (crystal violet) at 48 hrs divided by OD of control (control = 1)” value ([9]; 20 μmol/ml) was 1.5344 and the “biofilm growth, OD at 630 nm (crystal violet) at 48 hrs divided by OD of control (control = 1)” value ([9]; 25 μmol/ml) was 1.6960. The “biofilm growth, OD at 630 nm (crystal violet) at 48 hrs divided by OD of control (control = 1)” value ([10]; 5 μmol/ml) was 1.0369, the “biofilm growth, OD at 630 nm (crystal violet) at 48 hrs divided by OD of control (control = 1)” value ([10]; 10 μmol/ml) was 0.9131 and the “biofilm growth, OD at 630 nm (crystal violet) at 48 hrs divided by OD of control (control = 1)” value ([10]; 20 μmol/ml) was 1.0055. For the same compound, the “biofilm growth, OD at 630 nm (crystal violet) at 48 hrs divided by OD of control (control = 1)” value ([10]; 25 μmol/ml) was 0.9659, the “biofilm growth, OD at 630 nm (crystal violet) at 48 hrs divided by OD of control (control = 1)” value ([11]; 5 μmol/ml) was 1.5035 and the “biofilm growth, OD at 630 nm (crystal violet) at 48 hrs divided by OD of control (control = 1)” value ([11]; 10 μmol/ml) was 1.7477. For the same compound, the “biofilm growth, OD at 630 nm (crystal violet) at 48 hrs divided by OD of control (control = 1)” value ([11]; 20 μmol/ml) was 2.0414.
